Source: patent US20040038855A1 (priority 1999, published 2004)
pKi: −log10 of the molar value. Read-outs that look alike come from different tables or passages of the source.

Legend:
rat MCH1 receptor = target: T1, rat MCH1 receptor (Rattus norvegicus, UniProt P97639); assay: Binding affinity (Ki) at the rat MCH1 receptor; details: for Ki: read-out: Ki (nM) rMCH1; for pKi: Table 3c, read-out: rMCH1 Ki
T1 construct: expressed in transfected cells
Procedure: For binding assays, pellets of transfected cells are suspended in ice-cold buffer (20 mM Tris.HCl, 5 mM EDTA, pH 7.4) and homogenized by sonication for 7 sec. The cell lysates are centrifuged at 200×g for 5 min at 4° C. The supernatants are then centrifuged at 40,000×g for 20 min at 4° C. The resulting pellets are washed once in the homogenization buffer and suspended in binding buffer (see methods for radioligand binding). Protein concentrations are determined by the method of Bradford (1976) using bovine serum albumin as the standard. Binding assays are usually performed immediately, however it is possible to prepare membranes in batch and store frozen in liquid nitrogen for future use.
Binding is performed at 25° C. for 1 hr. Incubations are terminated by rapid vacuum filtration over GF/C glass fiber filters, presoaked in 5% PEI using 50 mM Tris pH 7.4 containing 0.01% triton X-100 as wash buffer.
A methanolic solution of methyl (4S)-3-({[3-(4-[3-(acetylamino)phenyl]-3,6-dihydro-1(2H)pyridinyl)propyl]amino}carbonyl)-4-(3,4-difluorophenyl)-6-(methoxymethyl)-2-oxo-1,2,3,4-tetrahydro-5-pyrimidinecarboxylate was exposed to tritium gas at 1 atmosphere pressure in the presence of 5% palladium on carbon with stirring overnight to give the tritiated methyl (4S)-3-{[(3-{4-[3-(acetylamino)phenyl]-1-piperidinyl}propyl)amino]carbonyl}-4-(3,4-difluorophenyl)-6-(methoxymethyl)-2-oxo-1,2,3,4-tetrahydro-5-pyrimidinecarboxylate ((+)-isomer) After purification by reverse phase HPLC (Hypersil ODS, 4.6×100 mm, methanol:H2O:Et3N 10:90:1 to 100:0:1 in 15 min at 1.0 mL/min, with radiochemical and UV detection), this product was used as a radioligand in the MCH1 binding assays. The same procedure was carried out with H2 gas in place of ^3H2 to afford the non-radioactive version of Compound 10.

[1] = target: T2, human Dopamine D2 receptor (Homo sapiens, UniProt P14416); assay: Binding affinity at the human dopamine D2 receptor; details: Table 3c; read-out: hD2 Ki
T2 construct: purchased BioSignal, Inc. (Montreal, Canada)
From the text: (§1) Other receptors: Cell membranes expressing human dopamine D1, D2, D4 and rat D3 receptors were purchased through BioSignal, Inc. (Montreal, Canada). Binding assays using the histamine H1 receptor; dopamine receptors; and α1A, α1B, and α2 adrenergic receptors may be carried out according to the procedures described in U.S. Pat. No. 5,780,485, the disclosure of which is hereby incorporated by reference in its entirety into this application. Binding assays using the dopamine D5 receptor may be carried out according to the procedures described in U.S. Pat. No. 5,882,855, the disclosure of which is hereby incorporated by reference in its entirety into this application. Binding assays for the human α1D adrenergic receptor may be carried out according to the procedures described in U.S. Pat. No. 6,156,518, the disclosure of which is hereby incorporated by reference in its entirety into this application.

[2] = target: T3, human Alpha-1a Adrenergic receptor (Homo sapiens, UniProt P35348); assay: Binding affinity at the human alpha-1A adrenergic receptor; details: Table 3c; read-out: hAlpha-1a Ki
T3 construct: expressed in transfected cells
T3 sequence (P35348 1-466): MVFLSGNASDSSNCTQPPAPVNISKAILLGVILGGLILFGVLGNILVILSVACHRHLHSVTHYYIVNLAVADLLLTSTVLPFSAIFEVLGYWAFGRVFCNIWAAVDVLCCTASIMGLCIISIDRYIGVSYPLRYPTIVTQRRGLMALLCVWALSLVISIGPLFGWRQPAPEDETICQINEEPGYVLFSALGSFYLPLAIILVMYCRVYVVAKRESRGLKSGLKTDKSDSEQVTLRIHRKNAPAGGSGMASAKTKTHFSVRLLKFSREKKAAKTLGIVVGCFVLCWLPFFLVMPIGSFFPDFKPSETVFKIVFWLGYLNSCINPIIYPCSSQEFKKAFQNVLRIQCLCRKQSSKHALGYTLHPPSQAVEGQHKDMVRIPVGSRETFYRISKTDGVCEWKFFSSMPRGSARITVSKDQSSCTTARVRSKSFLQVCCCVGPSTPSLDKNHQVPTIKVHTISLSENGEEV
From the text: as §1

T2 sequence (P14416 whole entry): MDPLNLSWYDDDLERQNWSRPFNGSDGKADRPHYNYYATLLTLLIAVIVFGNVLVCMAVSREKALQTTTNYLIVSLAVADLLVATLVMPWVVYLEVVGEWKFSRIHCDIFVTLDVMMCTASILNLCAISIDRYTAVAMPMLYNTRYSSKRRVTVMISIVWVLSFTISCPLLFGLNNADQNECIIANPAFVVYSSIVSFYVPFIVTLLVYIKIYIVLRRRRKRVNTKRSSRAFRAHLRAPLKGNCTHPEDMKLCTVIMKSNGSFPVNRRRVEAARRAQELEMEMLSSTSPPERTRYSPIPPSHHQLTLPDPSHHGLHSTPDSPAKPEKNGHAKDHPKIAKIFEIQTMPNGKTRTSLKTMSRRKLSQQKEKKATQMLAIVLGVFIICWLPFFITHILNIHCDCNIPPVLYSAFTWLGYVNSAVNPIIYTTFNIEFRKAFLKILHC
T1 sequence (P97639 whole entry): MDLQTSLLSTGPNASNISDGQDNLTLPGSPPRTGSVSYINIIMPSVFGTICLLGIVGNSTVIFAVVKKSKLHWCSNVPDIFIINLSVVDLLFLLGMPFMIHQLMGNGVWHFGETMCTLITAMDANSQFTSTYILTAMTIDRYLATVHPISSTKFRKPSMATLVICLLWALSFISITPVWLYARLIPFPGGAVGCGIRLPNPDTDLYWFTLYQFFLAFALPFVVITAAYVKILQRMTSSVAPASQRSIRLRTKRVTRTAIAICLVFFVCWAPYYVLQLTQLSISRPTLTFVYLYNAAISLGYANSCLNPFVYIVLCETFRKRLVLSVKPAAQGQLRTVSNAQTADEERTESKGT

| Compound | Ki (rat MCH1 receptor; Examples 38-141) | pKi (rat MCH1 receptor) | pKi [1] | pKi [2] | Ki (rat MCH1 receptor; Examples 142-153) |
| --- | --- | --- | --- | --- | --- |
| COc1ccc(C(=O)CCCN2CCC(c3cccc(NC(=O)Cc4ccccc4)c3)CC2)c(OC)c1 [Example 79] | 1040 nM | 5.98 |  |  |  |
| COCC(=O)Nc1cccc(C2CCN(CCCC(=O)c3ccc(C)c(C)c3)CC2)c1 [Example 62] | 274 nM | 6.56 |  |  |  |
| COc1cccc(CN2CCC(c3cccc(NC(=O)C(C)C)c3)CC2)c1 [Example 102] | 187 nM | 6.73 |  |  |  |
| CC(C)C(=O)Nc1cccc(C2CCN(CCCC(=O)c3ccccc3)CC2)c1 [Example 74] | 29.5 nM | 7.53 | 6.11 | 6.94 |  |
| CC(C)C(=O)Nc1cccc(C2CCN(Cc3c[nH]c4cc(Cl)ccc34)CC2)c1 [Example 142] |  |  |  |  | 20.6 nM |
| Cc1ccc(-n2cc(CN3CCC(c4cccc(NC(=O)C(C)C)c4)CC3)c3ccccc32)cc1 [Example 143] |  |  |  |  | 14.9 nM |
| CC(C)C(=O)Nc1cccc(C2CCN(CC[C@H](Oc3ccc(-c4ccccc4)cc3)c3ccccc3)CC2)c1 [Example 134] | 22.2 nM | 7.65 | 7.42 | 5.88 |  |
| CC(=O)Nc1cccc(C2CCN(CCCC(=O)c3ccc(Br)cc3)CC2)c1 [Example 88] | 160 nM | 6.80 |  |  |  |
| COc1cccc(CC(=O)Nc2cccc(C3CCN(CCCC(=O)c4ccc(Cl)cc4)CC3)c2)c1 [Example 69] | 11.9 nM | 7.92 |  | 7.21 |  |
| Cc1ccc(C(=O)CCCN2CCC(c3cccc(NS(C)(=O)=O)c3)CC2)cc1C [Example 63] | 1000 nM | 6.00 |  |  |  |
| CC(C)C(=O)Nc1cccc(C2CCN(CCCN3C(=O)c4ccccc4C3=O)CC2)c1 [Example 97] | 946 nM | 6.02 |  |  |  |
| COc1cccc(CC(=O)Nc2cccc(C3CCN(CCCC(=O)c4ccccc4)CC3)c2)c1 [Example 76] | 21 nM | 7.68 | 6.33 | 7.38 |  |
| CC(=O)Nc1cccc(C2CCN(CCCNC(=O)N3C(=O)NC4=C(C(=O)OC4)C3c3ccc4nonc4c3)CC2)c1 (stereo not drawn) [Example 55] | 204 nM | 6.69 |  |  |  |
| CC(C)C(=O)Nc1cccc(C2CCN(CC[C@H](Oc3ccc(Oc4ccccc4)cc3)c3ccccc3)CC2)c1 [Example 139] | 48.1 nM | 7.32 |  |  |  |
| CN(C)S(=O)(=O)Nc1cccc(C2CCN(CCCC(=O)c3ccc(Cl)cc3)CC2)c1 [Example 84] | 511 nM | 6.29 |  |  |  |
| CC(=O)Nc1cccc(C2CCN(CCCC(=O)c3ccc(C(C)C)cc3)CC2)c1 [Example 86] | 382 nM | 6.42 |  |  |  |
| CC(C)C(=O)Nc1cccc(C2CCN(CC[C@H](O)c3ccccc3)CC2)c1 [Example 98] | 118 nM | 6.93 |  |  |  |
| CCS(=O)(=O)Nc1cccc(C2CCN(CCCC(=O)c3ccc(Cl)cc3)CC2)c1 [Example 72] | 272 nM | 6.57 |  |  |  |
| CC(=O)Nc1cccc(C2CCN(CCCC(=O)c3ccccc3)CC2)c1 [Example 73] | 342 nM | 6.47 |  |  |  |
| CC(C)C(=O)Nc1cccc(C2CCN(CC[C@H](Oc3cccc4ccccc34)c3ccccc3)CC2)c1 [Example 137] | 377 nM | 6.42 |  |  |  |

| Compound | Ki (rat MCH1 receptor; Examples 38-141) | pKi (rat MCH1 receptor) | pKi [1] | pKi [2] | Ki (rat MCH1 receptor; Examples 142-153) |
| --- | --- | --- | --- | --- | --- |
| Cc1ccc(C(=O)CCCN2CCC(c3cccc(NS(=O)(=O)C(C)C)c3)CC2)cc1C [Example 89] | 615 nM | 6.21 |  |  |  |
| COCC(=O)Nc1cccc(C2CCN(CCCC(=O)c3ccc(Cl)cc3)CC2)c1 [Example 70] | 167 nM | 6.78 |  |  |  |
| CC(=O)Nc1cccc(C2CCN(CCCC(=O)c3ccc(Oc4ccccc4)cc3)CC2)c1 [Example 81] | 463 nM | 6.33 |  |  |  |
| CC(C)C(=O)Nc1cccc(C2CCN(CC[C@H](NC(=O)Cc3ccc(F)cc3)c3ccccc3)CC2)c1 [Example 145] |  |  |  |  | 3 nM |
| Cc1ccc(C(=O)CCCN2CCC(c3cccc(NC(=O)Cc4ccccc4)c3)CC2)cc1C [Example 60] | 357 nM | 6.45 |  |  |  |
| CCS(=O)(=O)Nc1cccc(C2CCN(CCCC(=O)c3ccc(C)c(C)c3)CC2)c1 [Example 64] | 627 nM | 6.20 |  |  |  |
| COCC1=C(C(=O)NCCCN2CCC(c3cccc(NC(=O)CC(C)(C)C)c3)CC2)[C@@H](c2ccc(F)c(F)c2)NC(=O)N1 [Example 49] | 225 nM | 6.65 |  |  |  |
| CC(C)S(=O)(=O)Nc1cccc(C2CCN(CCCC(=O)c3ccc(Oc4ccccc4)cc3)CC2)c1 [Example 90] | 651 nM | 6.19 |  |  |  |
| CC(C)C(=O)Nc1cccc(C2CCN(CC[C@@H](c3ccccc3)N3C(=O)c4ccccc4C3=O)CC2)c1 [Example 138] | 11.2 nM | 7.95 |  |  |  |
| Cc1ccc(C(=O)CCCN2CCC(c3cccc(NC(=O)C4CCCCC4)c3)CC2)cc1C [Example 59] | 768 nM | 6.11 |  |  |  |
| CC(C)C(=O)Nc1cccc(C2CCN(CCCc3c(-c4ccccc4)n(-c4ccccc4)c4ccccc34)CC2)c1 [Example 146] |  |  |  |  | 3 nM |
| COc1ccc(C(=O)CCCN2CCC(c3cccc(NC(C)=O)c3)CC2)c(OC)c1 [Example 77] | 630 nM | 6.20 |  |  |  |
| CC(=O)Nc1cccc(C2CCN(CCCC(=O)c3ccc(C)cc3)CC2)c1 [Example 87] | 362 nM | 6.44 |  |  |  |
| CS(=O)(=O)Nc1cccc(C2CCN(CCCC(=O)c3ccc(Cl)cc3)CC2)c1 [Example 71] | 720 nM | 6.14 |  |  |  |
| COc1ccc(O[C@H](CCN2CCC(c3ccc(NC(=O)C(C)C)cc3)CC2)c2ccccc2)cc1OC [Example 140] | 121 nM | 6.92 |  |  |  |
| CC(=O)Nc1cccc(C2CCN(CCCC(=O)c3cccs3)CC2)c1 [Example 85] | 654 nM | 6.18 |  |  |  |
| CCC(=O)N[C@@H](CCN1CCC(c2cccc(NC(=O)C(C)C)c2)CC1)c1ccccc1 [Example 144] |  |  |  |  | 16 nM |
| O=C(CCCN1CCC(c2cccc(NC(=O)C3CCCCC3)c2)CC1)c1ccc(Cl)cc1 [Example 67] | 197 nM | 6.71 |  |  |  |
| O=C(Cc1ccccc1)Nc1cccc(C2CCN(CCCC(=O)c3ccccc3)CC2)c1 [Example 75] | 506 nM | 6.30 |  |  |  |
| CC(C)C(=O)Nc1cccc(C2CCN(Cc3ccc(Oc4ccc(Cl)cc4)cc3)CC2)c1 [Example 150] |  |  |  |  | 5.2 nM |
